# These antisense oligonucleotides have a phosphorothioate backbone; sugars and methylation of C are not fully specified.
# Tests used:
# Conditions in all cases: ASO
# CTNNB1 = molecular target: CTNNB1
# RELA = molecular target: RELA
# GNAI3 = molecular target: GNAI3
# MAP2K7 = molecular target: MAP2K7
# Note: test concentration or dose not given here.
sequence,measurement,setting,value
CTAAAGGATGATTTACAGGT,remaining target (mRNA or protein) (fraction of control),CTNNB1,0.54
CGACCTGCGGTGGCGGCTCG,remaining target (mRNA or protein) (fraction of control),CTNNB1,0.36
TCGCCACACCTTCATTCCTA,remaining target (mRNA or protein) (fraction of control),CTNNB1,0.37
TTCGGTTCACTCGGCAGA,remaining target (mRNA or protein) (fraction of control),RELA,≥ 1
GCACTTGTAGCGGAAGCG,remaining target (mRNA or protein) (fraction of control),RELA,≥ 1
GCACGAACAAGCAACTGAAC,remaining target (mRNA or protein) (fraction of control),CTNNB1,0.37
GTCTGTGCTGTTGCCAAG,remaining target (mRNA or protein) (fraction of control),RELA,0.87
CTGGTCAGCTCAACTGAAAG,remaining target (mRNA or protein) (fraction of control),CTNNB1,0.41
AGGCTAGGGTTTGCTAAATT,remaining target (mRNA or protein) (fraction of control),CTNNB1,0.47
TCACACAGTAGGAAGATC,remaining target (mRNA or protein) (fraction of control),RELA,0.74
AGCCAGAACAAGGTCATA,remaining target (mRNA or protein) (fraction of control),GNAI3,0.88
AAAGGAGCCTCGGGCCTC,remaining target (mRNA or protein) (fraction of control),RELA,0.37
ATGGCGATGAAGACGTCCGT,remaining target (mRNA or protein) (fraction of control),MAP2K7,0.84
CAAAGATGGGATGAGGAA,remaining target (mRNA or protein) (fraction of control),RELA,≥ 1
CAGGTCCCGCTTCTTCAC,remaining target (mRNA or protein) (fraction of control),RELA,0.33
ACAATGCCTGTGGTCTTC,remaining target (mRNA or protein) (fraction of control),GNAI3,≥ 1
AGTAGCCATTGTCCACGCTG,remaining target (mRNA or protein) (fraction of control),CTNNB1,0.37
CTCAACACTCCACACTGT,remaining target (mRNA or protein) (fraction of control),GNAI3,0.9
CTGCCGGGAAGATGAGGG,remaining target (mRNA or protein) (fraction of control),RELA,0.84
TGAACGTCCCAAAGCACTGC,remaining target (mRNA or protein) (fraction of control),MAP2K7,0.86
AGGTATGCCCTGGTTCAG,remaining target (mRNA or protein) (fraction of control),RELA,0.61
TGTTTTCAATGGGAGAATAA,remaining target (mRNA or protein) (fraction of control),CTNNB1,0.63
ATGGGTCCCGCACTGTCA,remaining target (mRNA or protein) (fraction of control),RELA,0.38
ACTCCACACTGTAGTAAC,remaining target (mRNA or protein) (fraction of control),GNAI3,0.45
ATGGAGGAGAAGTCTTCA,remaining target (mRNA or protein) (fraction of control),RELA,≥ 1
TTCTGCACCTTGTCACAC,remaining target (mRNA or protein) (fraction of control),RELA,0.37
ATCTCCTTGGTATCTTTT,remaining target (mRNA or protein) (fraction of control),GNAI3,0.33
ACCAGGGTGGTGGCCACCCA,remaining target (mRNA or protein) (fraction of control),CTNNB1,0.48
TTCTCTTGAAGCATCGTATC,remaining target (mRNA or protein) (fraction of control),CTNNB1,0.2
CGCCGCCATCTTCCCCGCCG,remaining target (mRNA or protein) (fraction of control),MAP2K7,0.99
AGGTGCATGATTTGCGGGAC,remaining target (mRNA or protein) (fraction of control),CTNNB1,0.62
CATCTTCCCCGCCGCCACCG,remaining target (mRNA or protein) (fraction of control),MAP2K7,0.68
CCCAGGCTCCATACGTCGGC,remaining target (mRNA or protein) (fraction of control),MAP2K7,0.74
TGGCACAGGTGAAGTGAG,remaining target (mRNA or protein) (fraction of control),GNAI3,0.29
CAAAACAAGGTTCCAAATAA,remaining target (mRNA or protein) (fraction of control),CTNNB1,0.56
AGCTGAGCTGCGGGAAGG,remaining target (mRNA or protein) (fraction of control),RELA,0.86
AGCCCACCAGCTAAACGCAC,remaining target (mRNA or protein) (fraction of control),CTNNB1,0.4
GGAGCGCCGCATTTGCTTAA,remaining target (mRNA or protein) (fraction of control),MAP2K7,0.75
TAATTGCTGTCACTCCCT,remaining target (mRNA or protein) (fraction of control),GNAI3,0.65
TATTGGAACCTGTGTATT,remaining target (mRNA or protein) (fraction of control),GNAI3,0.54
GACTCCTTCTTCAGCACT,remaining target (mRNA or protein) (fraction of control),GNAI3,0.48
CGTCAGTCCGGCAGACAAAC,remaining target (mRNA or protein) (fraction of control),MAP2K7,0.91
TCCAGGTTGAGGTCGATCCT,remaining target (mRNA or protein) (fraction of control),MAP2K7,0.68
CATGAGACAGCAAAAGGT,remaining target (mRNA or protein) (fraction of control),GNAI3,0.92
CTTTAGTAAGGCAGTCTTTG,remaining target (mRNA or protein) (fraction of control),MAP2K7,0.7
TCTTCCCCGCCGCCACCGCC,remaining target (mRNA or protein) (fraction of control),MAP2K7,0.77
ATGCAGCACCTCAACTTC,remaining target (mRNA or protein) (fraction of control),GNAI3,0.4
CACCTCCAGCGTCTCGTAGC,remaining target (mRNA or protein) (fraction of control),MAP2K7,0.45
ATTGTTTACATTCATCCT,remaining target (mRNA or protein) (fraction of control),GNAI3,≥ 1
TAGCCATTGTCCACGCTGGA,remaining target (mRNA or protein) (fraction of control),CTNNB1,0.23
CTGGCTCAAGGAACGCCGTT,remaining target (mRNA or protein) (fraction of control),MAP2K7,≥ 1
GACAGCGTTCCTTCCCCA,remaining target (mRNA or protein) (fraction of control),RELA,≥ 1
TGAGTAGCCATTGTCCACGC,remaining target (mRNA or protein) (fraction of control),CTNNB1,0.35
AATTCCAATGTCTGACTT,remaining target (mRNA or protein) (fraction of control),GNAI3,0.51
TTGTCCACGCTGGATTTTCA,remaining target (mRNA or protein) (fraction of control),CTNNB1,0.52
CCATGCTTCTCAATAAAG,remaining target (mRNA or protein) (fraction of control),GNAI3,0.58
CTTCTCAATAAAGTCCAC,remaining target (mRNA or protein) (fraction of control),GNAI3,0.65
TAGCAGTTTTGTCAGTTCAG,remaining target (mRNA or protein) (fraction of control),CTNNB1,≥ 1
CAATAAAGTCCACATTCC,remaining target (mRNA or protein) (fraction of control),GNAI3,≥ 1
GAGTTGGAATGTAGTTAG,remaining target (mRNA or protein) (fraction of control),GNAI3,0.56
GTTGTTGGTCTGGATGCG,remaining target (mRNA or protein) (fraction of control),RELA,0.63
CAAATCAGCTTGAGTAGCCA,remaining target (mRNA or protein) (fraction of control),CTNNB1,0.49
AGTCCGCGGTGACTCAGGTC,remaining target (mRNA or protein) (fraction of control),MAP2K7,0.87
GTACGCACAAGAGCCTCTAT,remaining target (mRNA or protein) (fraction of control),CTNNB1,0.29
AATCAGCTTGAGTAGCCATT,remaining target (mRNA or protein) (fraction of control),CTNNB1,0.31
AAATGTGTTTCTACAATG,remaining target (mRNA or protein) (fraction of control),GNAI3,0.9
CCCCTCGCTCTCCGCTCCCG,remaining target (mRNA or protein) (fraction of control),CTNNB1,0.07
TTATTGCAAGTGAGGTTAGA,remaining target (mRNA or protein) (fraction of control),CTNNB1,0.51
CTCAATGATCTCCACATA,remaining target (mRNA or protein) (fraction of control),RELA,≥ 1

# Source: the OligoGym collection
